{
  "source": "ChEMBL document CHEMBL4495564",
  "about": "“Identification of inhibitors of SARS-Cov2 M-Pro enzymatic activity using a small molecule repurposing screen” (2020)",
  "key": {"[1]": {"target": "Replicase polyprotein 1ab (Middle East respiratory syndrome-related coronavirus (isolate UnitedKingdom/H123990006/2012) (Betacoronavirus England 1) (Humancoronavirus EMC), UniProt K9N7C7)", "sequence (K9N7C7 3248-3553 limits assumed)": "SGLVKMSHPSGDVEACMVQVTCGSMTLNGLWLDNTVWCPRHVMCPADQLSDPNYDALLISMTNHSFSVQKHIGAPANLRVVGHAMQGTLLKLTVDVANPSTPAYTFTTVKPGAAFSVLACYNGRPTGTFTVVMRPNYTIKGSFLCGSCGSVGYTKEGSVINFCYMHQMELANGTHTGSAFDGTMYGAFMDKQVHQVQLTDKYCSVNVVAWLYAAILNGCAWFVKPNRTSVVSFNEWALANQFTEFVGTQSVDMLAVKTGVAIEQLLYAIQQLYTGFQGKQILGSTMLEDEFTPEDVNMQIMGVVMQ", "assay": "biochemical", "type": "functional"}, "[2]": {"target": "Replicase polyprotein 1ab (Middle East respiratory syndrome-related coronavirus (isolate UnitedKingdom/H123990006/2012) (Betacoronavirus England 1) (Humancoronavirus EMC)) (UniProt K9N7C7)", "settings": "at 10 µM"}},
  "note": "pIC50: −log10 of the molar value. Structures can show the parent of a compound that is named as a salt.",
  "data": [
    {"compound": "O=C(c1cc(O)c(O)c(O)c1)c1ccc(O)c(O)c1O", "note": "[EXIFONE]", "values": [
      {"measurement": "pIC50", "setting": "[1]", "result": "< 5.00"},
      {"measurement": "inhibition", "setting": "[2]", "result": 0, "unit": "%"}
    ]},
    {"compound": "Oc1ccc2ccccc2c1SSc1c(O)ccc2ccccc12", "values": [
      {"measurement": "pIC50", "setting": "[1]", "result": "< 5.00"},
      {"measurement": "inhibition", "setting": "[2]", "result": 6, "unit": "%"}
    ]},
    {"compound": "COCCCOc1ccnc(C[S+]([O-])c2nc3ccccc3[nH]2)c1C", "note": "(configuration not stated) [RABEPRAZOLE SODIUM]", "values": [
      {"measurement": "pIC50", "setting": "[1]", "result": "< 5.00"},
      {"measurement": "inhibition", "setting": "[2]", "result": 46, "unit": "%"}
    ]},
    {"compound": "COc1ccc2[nH]c([S+]([O-])Cc3ncc(C)c(OC)c3C)nc2n1", "note": "(configuration not stated) [TENATOPRAZOLE]", "values": [
      {"measurement": "pIC50", "setting": "[1]", "result": "< 5.00"},
      {"measurement": "inhibition", "setting": "[2]", "result": 0, "unit": "%"}
    ]},
    {"compound": "O=[N+]([O-])C(Br)(CO)CO", "note": "[BRONOPOL]", "values": [
      {"measurement": "pIC50", "setting": "[1]", "result": "< 5.00"},
      {"measurement": "inhibition", "setting": "[2]", "result": 14, "unit": "%"}
    ]},
    {"compound": "Oc1cc2c(cc1O)[C@H]1c3ccccc3CN[C@@H]1CC2", "note": "[DIHYDREXIDINE HYDROCHLORIDE]", "values": [
      {"measurement": "pIC50", "setting": "[1]", "result": "< 5.00"},
      {"measurement": "inhibition", "setting": "[2]", "result": 19, "unit": "%"}
    ]},
    {"compound": "C[n+]1cc2c3c(ccc2c2ccc4cc5c(cc4c21)OCO5)OCO3", "note": "[SANGUINARIUM CHLORIDE]", "values": [
      {"measurement": "pIC50", "setting": "[1]", "result": "< 5.00"},
      {"measurement": "inhibition", "setting": "[2]", "result": 32, "unit": "%"}
    ]},
    {"compound": "Oc1c(I)cc(I)c(O)c1I", "values": [
      {"measurement": "pIC50", "setting": "[1]", "result": "< 5.00"},
      {"measurement": "inhibition", "setting": "[2]", "result": 0, "unit": "%"}
    ]},
    {"compound": "CN1CCc2cccc3c2[C@H]1Cc1ccc(O)c(O)c1-3", "note": "[APOMORPHINE HYDROCHLORIDE]", "values": [
      {"measurement": "pIC50", "setting": "[1]", "result": "< 5.00"},
      {"measurement": "inhibition", "setting": "[2]", "result": 6, "unit": "%"}
    ]},
    {"compound": "Sc1nc2ccccc2s1", "note": "[2-MERCAPTOBENZOTHIAZOLE]", "values": [
      {"measurement": "pIC50", "setting": "[1]", "result": "< 5.00"},
      {"measurement": "inhibition", "setting": "[2]", "result": 0, "unit": "%"}
    ]},
    {"compound": "THIMEROSAL [listing 1 of 2 here]", "values": [
      {"measurement": "inhibition", "setting": "[2]", "result": 46, "unit": "%"}
    ]},
    {"compound": "O=C1C=CC(=O)C2=C1C1c3ccccc3C2c2ccccc21", "values": [
      {"measurement": "pIC50", "setting": "[1]", "result": "< 5.00"},
      {"measurement": "inhibition", "setting": "[2]", "result": 45, "unit": "%"}
    ]},
    {"compound": "Nc1ccc(S(=O)(=O)Nc2ncccn2)cc1", "note": "[SULFADIAZINE, SILVER]", "values": [
      {"measurement": "pIC50", "setting": "[1]; tested as the Ag salt or complex", "result": "< 5.00"}
    ]},
    {"compound": "THIMEROSAL [listing 2 of 2 here]", "values": [
      {"measurement": "pIC50", "setting": "[1]", "result": "< 5.00"}
    ]},
    {"compound": "O=C(O)CCCCCCCCCCCCCCc1ccc(I)cc1", "note": "[IOCANLIDIC ACID]", "values": [
      {"measurement": "pIC50", "setting": "[1]", "result": "< 5.00"},
      {"measurement": "inhibition", "setting": "[2]", "result": 0, "unit": "%"}
    ]},
    {"compound": "CN(C)C(=S)SSC(=S)N(C)C", "note": "[THIRAM]", "values": [
      {"measurement": "pIC50", "setting": "[1]", "result": "< 5.00"},
      {"measurement": "inhibition", "setting": "[2]", "result": 48, "unit": "%"}
    ]},
    {"compound": "CC(C)(C)c1ccc(S(=O)(=O)/C=C/C#N)cc1", "note": "[BAY-11-7085]", "values": [
      {"measurement": "pIC50", "setting": "[1]", "result": "< 5.00"},
      {"measurement": "inhibition", "setting": "[2]", "result": 0, "unit": "%"}
    ]},
    {"compound": "O=[N+]([O-])c1cnc(Sc2nnc(O)n2-c2ccc3c(c2)OCCO3)s1", "values": [
      {"measurement": "pIC50", "setting": "[1]", "result": 5.42}
    ]},
    {"compound": "CCC(=O)OCN1C(=O)C=CC1=O", "values": [
      {"measurement": "pIC50", "setting": "[1]", "result": "< 5.00"},
      {"measurement": "inhibition", "setting": "[2]", "result": 0, "unit": "%"}
    ]},
    {"compound": "CC(Cc1ccc(O)c(O)c1)C(C)Cc1ccc(O)c(O)c1", "note": "(configuration not stated) [NORDIHYDROGUAIARETIC ACID]", "values": [
      {"measurement": "pIC50", "setting": "[1]", "result": "< 5.00"},
      {"measurement": "inhibition", "setting": "[2]", "result": 0, "unit": "%"}
    ]},
    {"compound": "O=c1c2ccccc2[se]n1-c1ccccc1", "note": "[EBSELEN]", "values": [
      {"measurement": "pIC50", "setting": "[1]", "result": "< 5.00"},
      {"measurement": "inhibition", "setting": "[2]", "result": 14, "unit": "%"}
    ]},
    {"compound": "c1ccc2sc(SNC3CCCCC3)nc2c1", "values": [
      {"measurement": "pIC50", "setting": "[1]", "result": "< 5.00"},
      {"measurement": "inhibition", "setting": "[2]", "result": 0, "unit": "%"}
    ]},
    {"compound": "COc1cccc(C(=O)CCN[C@@H](C)[C@H](O)c2ccccc2)c1", "values": [
      {"measurement": "pIC50", "setting": "[1]", "result": "< 5.00"},
      {"measurement": "inhibition", "setting": "[2]", "result": 19, "unit": "%"}
    ]},
    {"compound": "CC[C@H](CO)Nc1nc(NCc2ccc(-c3ccccn3)cc2)c2ncn(C(C)C)c2n1", "values": [
      {"measurement": "pIC50", "setting": "[1]", "result": "< 5.00"},
      {"measurement": "inhibition", "setting": "[2]", "result": 4, "unit": "%"}
    ]},
    {"compound": "Nc1nnc(Sc2ncc([N+](=O)[O-])s2)s1", "values": [
      {"measurement": "pIC50", "setting": "[1]", "result": "< 5.00"},
      {"measurement": "inhibition", "setting": "[2]", "result": 45, "unit": "%"}
    ]},
    {"compound": "Oc1cc2c(cc1O)[C@@H]1c3ccc(O)c(O)c3OC[C@]1(O)C2", "note": "[HEMATOXYLIN]", "values": [
      {"measurement": "pIC50", "setting": "[1]", "result": "< 5.00"},
      {"measurement": "inhibition", "setting": "[2]", "result": 5, "unit": "%"}
    ]},
    {"compound": "CCC(C)SSc1ncc[nH]1", "note": "(configuration not stated) [PX-12]", "values": [
      {"measurement": "pIC50", "setting": "[1]", "result": 5.12}
    ]},
    {"compound": "CC(C)N(CCC(=O)c1ccc2ccccc2c1)Cc1ccccc1", "values": [
      {"measurement": "pIC50", "setting": "[1]", "result": 5.09}
    ]},
    {"compound": "C=CC(=O)c1ccc2ccccc2c1", "values": [
      {"measurement": "pIC50", "setting": "[1]", "result": "< 5.00"},
      {"measurement": "inhibition", "setting": "[2]", "result": 26, "unit": "%"}
    ]},
    {"compound": "CN1CC[C@@]2(C)c3cc(O)ccc3N(C)[C@@H]12", "values": [
      {"measurement": "pIC50", "setting": "[1]", "result": "< 5.00"},
      {"measurement": "inhibition", "setting": "[2]", "result": 41, "unit": "%"}
    ]},
    {"compound": "O=C(O)c1ccc(SSc2ccc(C(=O)O)cn2)nc1", "values": [
      {"measurement": "pIC50", "setting": "[1]", "result": "< 5.00"},
      {"measurement": "inhibition", "setting": "[2]", "result": 8, "unit": "%"}
    ]},
    {"compound": "O=c1cc(-c2ccc(O)cc2)oc2cc(O)cc(O)c12", "note": "[APIGENIN]", "values": [
      {"measurement": "pIC50", "setting": "[1]", "result": "< 5.00"},
      {"measurement": "inhibition", "setting": "[2]", "result": 17, "unit": "%"}
    ]},
    {"compound": "CN(C)CCNc1nc2cc(O)ccc2c2c1C(=O)c1ccccc1-2", "values": [
      {"measurement": "pIC50", "setting": "[1]", "result": "< 5.00"},
      {"measurement": "inhibition", "setting": "[2]", "result": 0, "unit": "%"}
    ]},
    {"compound": "Oc1cc(O)cc(/C=C/c2ccc(O)c(O)c2)c1", "note": "[PICEATANNOL]", "values": [
      {"measurement": "pIC50", "setting": "[1]", "result": "< 5.00"},
      {"measurement": "inhibition", "setting": "[2]", "result": 24, "unit": "%"}
    ]},
    {"compound": "O=C1C2CC=CCC2C(=O)N1SC(Cl)(Cl)Cl", "note": "(configuration not stated) [CAPTAN]", "values": [
      {"measurement": "pIC50", "setting": "[1]", "result": "< 5.00"},
      {"measurement": "inhibition", "setting": "[2]", "result": 5, "unit": "%"}
    ]},
    {"compound": "CNC(=O)ON(C(C)=O)C(=O)NC", "note": "[CARACEMIDE]", "values": [
      {"measurement": "pIC50", "setting": "[1]", "result": "< 5.00"},
      {"measurement": "inhibition", "setting": "[2]", "result": 8, "unit": "%"}
    ]},
    {"compound": "[O-][S+](c1ccccc1)c1ccc2nnnn2n1", "note": "(configuration not stated)", "values": [
      {"measurement": "pIC50", "setting": "[1]", "result": 5.00}
    ]}
  ]
}
